Experimental data published in patent US20240398787A1, “TREATMENT OF MAJOR DEPRESSIVE DISORDER” (AbbVie Inc., priority 2021, published 2024).

Assay: Weight changes, Clinical Study A
Assay type: in vivo, human
Procedure: A global, multicenter, randomized, double-blind (DB), placebo-controlled, parallel-group, fixed-dose study compared cariprazine 1.5 mg/day and cariprazine 3 mg/day with placebo as an adjunctive treatment to ongoing ADT in outpatients with a diagnosis of MDD (via the Diagnostic and Statistical Manual of Mental Disorders, Fifth Edition [DSM-5]) having an inadequate response, as measured by the modified Antidepressant Treatment Response Questionnaire (ATRQ), to 1 to 3 antidepressants administered during the current episode at an adequate dose and adequate duration. Adequate dose was defined as a dose above the minimum labeled dose (per package insert). Adequate duration was defined as continuous ADT treatment for at least 6 weeks, with a minimum of 3 of 6 weeks above the minimal dose.
The study consisted of up to 14 days screening (with up to an additional 7 days of needed) and washout of prohibited medications followed by 6 weeks of double-blind (DB) treatment followed by a 4-week safety follow-up. At the end of the screening period, patients meeting the entry criteria for the study were randomized (1:1:1) to 1 of 3 double-blind treatment groups. Study treatment groups were: cariprazine 1.5 mg/day+antidepressant therapy and cariprazine 3 mg/day+antidepressant therapy. The control group received matching placebo+antidepressant therapy.
Dosage/Dose Regimen: Investigational product (cariprazine or placebo) in the form of capsules packaged in blister packs will be provided. No investigational product was administered during the screening/washout period; patients continued the same antidepressant and dose they were on at screening. Patients were taking more than one antidepressant at screening, regardless of the indication, discontinued all other antidepressants prior to baseline (Visit 2). During the double-blind treatment period (6 weeks), patients were administered 1 capsule orally per day in addition to their ongoing ADT. Patients in the 1.5 mg/day+ADT arm were administered 1.5 mg+ADT starting at Visit 2 (Week 0). Patients in the 3 mg/day+ADT arm were administered 1.5 mg+ADT starting at Visit 2 (Week 0) for 2 weeks and then titrate to 3 mg/day+ADT starting at Visit 4 (Week 2). Patients were supplied with identically appearing capsules of either cariprazine 1.5 mg, cariprazine 3 mg, or placebo.
A randomized, double-blind, placebo-controlled, multicenter trial with 759 participants was conducted in United States, Bulgaria, Estonia, Germany, Hungary, Ukraine, and the United Kingdom. […]

For CN(C)C(=O)N[C@H]1CC[C@H](CCN2CCN(c3cccc(Cl)c3Cl)CC2)CC1 [Cariprazine, trans-N-{4-[2-[4-(2,3-dichlorophenyl)piperazin-1-yl]ethyl]cyclohexyl}-N′,N′-dimethylurea], the “Weight change from baseline, mean (SD)” value (1.5 mg + ADT, n = 252) was 0.68 (2.5) kg, the “Weight increase ≥7% from baseline” value (1.5 mg + ADT, n = 252) was 10 (4.0) n (%) and the “Weight change from baseline, mean (SD)” value (3 mg + ADT, n = 252) was 0.78 (2.8) kg. The “Changes in weight at the end of treatment” value (all treatment groups) was < 1 kg.
